Values of other authors as cited in US20120149888A1, “SYNTHESIS OF ARA-2'-O-METHYL-NUCLEOSIDES, CORRESPONDING PHOSPHORAMIDITES AND OLIGONUCLEOTIDES INCORPORATING NOVEL MODIFICATIONS FOR BIOLOGICAL APPLICATION IN THERAPEUCTICS, DIAGNOSTICS, G- TETRAD FORMING OLIGONUCLEOTIDES AND APTAMERS” (priority 2009, published 2012).
“And” between values parts separate entries of the source, which are not always exact repeats. Identical values can stand only once. “Also recorded” adds a separate entry of the source. Like-named read-outs stand apart in the source and are kept apart here. Values belong to the molecule of their own block, whether it stands above or below them.

Columns and labels:
Ehrlich ascites (EAC-R2) = details: 6-Methyl thiopurine ribonucleoside-resistant Ehrlich ascites (EAC-R2)
Ehrlich ascites (ETGR11) = details: Thioguanine-resistant Ehrlich ascites (ETGR11)
[1] = test system: hydroxyurea-, vincristine-, VLB-, TSC-, cortisone- and MGGH-resistant mouse leukemias
P815/FU = details: in vivo
[2] = test system: equilibrative NBMPR-sensitive nucleoside transporter (es); details: growth-inhibitory concentrations
[3] = test system: L1210 line resistant to MGGH; details: in vivo
Raji leukemia = details: mouse, in vivo
L1210/C95 = details: in vivo
[4] = test system: human erythroleukemia cell line (K562)
AKR/r-AzCR = details: mouse, in vivo
Raji Burkitt's lymphoma = details: rat, in vivo
[5] = test system: nucleoside carrier-dependent transport; details: in vitro
[6] = polarographically, aprotic conditions, in the presence of alpha-lipoic acid
Ehrlich ascites (EAC-R1) = details: 6-Mercaptopurine-resistant Ehrlich ascites (EAC-R1)
Ehrlich ascites (ETGR1) = details: Thioguanine-resistant Ehrlich ascites (ETGR1)
[7] = test system: Lewis lung carcinoma cells; details: in vivo
[8] = test system: mouse and human tumor cells
[9] = test system: seven tumors (three melanomas, one lung adenocarcinoma, one breast cancer, and two osteogenic sarcomas); details: maximum tolerated dose, four weekly cycles of daily bolus i.v. injections for 5 days; lung carcinoma and all three malignant melanomas
L1210-ara-C = L1210-ara-C (Mihich et al., 1970)
L1210/MP = details: 6-Mercaptopurine-resistant L1210/MP
human cancer xenograft = details: in vivo
dCyd kinase = dCyd kinase (Homo sapiens, UniProt P27707)
dCyd kinase, sequence (P27707 whole entry): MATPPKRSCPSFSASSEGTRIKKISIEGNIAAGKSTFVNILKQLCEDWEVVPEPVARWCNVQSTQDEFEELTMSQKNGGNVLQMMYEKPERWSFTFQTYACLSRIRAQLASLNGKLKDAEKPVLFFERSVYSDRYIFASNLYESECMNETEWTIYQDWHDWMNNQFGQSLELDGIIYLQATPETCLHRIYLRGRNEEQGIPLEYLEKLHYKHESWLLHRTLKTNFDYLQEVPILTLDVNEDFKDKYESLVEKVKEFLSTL

[10] = test system: 13 human cancer cell lines; details: for effect of tetrahydrouridine on antiproliferative activity: Cyd deaminase inhibitor
human tumors [11] = test system: human tumors
[12] = test system: 11 human tumor xenografts; details: 11 xenografts
mouse leukemia L1210 = details: L1210 cells
[13] = test system: 36 human tumor cell lines
[14] = test system: human nasopharyngeal KB cells
human tumors [15] = details: once, 3 times and 5 times weekly for 2 or 4 weeks
L1210/CA = details: 1β-D-Arabinofuranosylcytosine-resistant L1210/CA
[16] = in vivo
[17] = target: purine nucleoside phosphorylase (PNP) (Homo sapiens, UniProt P00491)
purine nucleoside phosphorylase (PNP), sequence (P00491 whole entry, species assumed): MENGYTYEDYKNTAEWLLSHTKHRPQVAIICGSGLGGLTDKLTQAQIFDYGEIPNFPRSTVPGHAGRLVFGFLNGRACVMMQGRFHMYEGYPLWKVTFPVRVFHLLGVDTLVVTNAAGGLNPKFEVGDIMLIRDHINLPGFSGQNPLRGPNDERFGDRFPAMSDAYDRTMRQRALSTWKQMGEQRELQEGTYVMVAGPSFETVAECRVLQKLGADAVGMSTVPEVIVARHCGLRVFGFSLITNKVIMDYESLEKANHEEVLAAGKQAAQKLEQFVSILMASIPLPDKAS

[18] = test system: T-lymphoblasts, B-lymphoblasts
[19] = test system: P388/CPT45 top1-deficient cells
[20] = test system: normal primary prostatic epithelial cells; details: concentrations up to 100 nM
[21] = test system: human TT cell line derived from MTC; details: 10, 25 and 50 microg/ml for 24 hours
[22] = test system: drug-resistant P388 leukemias
[23] = test system: bone marrow granulopoietic-macrophage progenitor cells; details: granulopoietic-macrophagic progenitor cells
topoisomerase I (top1) = topoisomerase I (top1) (Homo sapiens, UniProt P11387); details: gemcitabine incorporated immediately 3′ from a top1 cleavage site on the nonscissile strand
topoisomerase I (top1), sequence (P11387 whole entry, species assumed): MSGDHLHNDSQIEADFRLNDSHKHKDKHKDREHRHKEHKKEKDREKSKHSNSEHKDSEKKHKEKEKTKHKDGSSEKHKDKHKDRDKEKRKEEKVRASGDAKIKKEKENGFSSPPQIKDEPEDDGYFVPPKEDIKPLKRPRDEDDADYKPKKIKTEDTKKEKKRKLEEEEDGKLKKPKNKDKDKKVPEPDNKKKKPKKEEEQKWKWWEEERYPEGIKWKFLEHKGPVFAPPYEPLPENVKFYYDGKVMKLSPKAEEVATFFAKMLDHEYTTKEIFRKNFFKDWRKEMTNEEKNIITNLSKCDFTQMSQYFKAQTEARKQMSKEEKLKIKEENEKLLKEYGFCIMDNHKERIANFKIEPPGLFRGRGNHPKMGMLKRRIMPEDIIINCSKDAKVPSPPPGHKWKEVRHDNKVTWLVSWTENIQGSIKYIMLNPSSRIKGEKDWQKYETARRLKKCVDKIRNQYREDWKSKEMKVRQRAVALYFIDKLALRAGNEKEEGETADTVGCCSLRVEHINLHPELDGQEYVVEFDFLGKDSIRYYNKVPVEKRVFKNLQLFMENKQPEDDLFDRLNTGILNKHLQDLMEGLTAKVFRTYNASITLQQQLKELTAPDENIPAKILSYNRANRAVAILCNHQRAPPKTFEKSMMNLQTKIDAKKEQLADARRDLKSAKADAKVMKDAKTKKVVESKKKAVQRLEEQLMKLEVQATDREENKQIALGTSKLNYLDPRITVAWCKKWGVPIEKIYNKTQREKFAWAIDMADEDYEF

Structure (SMILES): Sc1ncnc2nc[nH]c12 [6-Mercaptopurine]
Response to chemotherapeutic drugs: Cross-resistant (Ehrlich ascites (EAC-R2)): 6-Mercaptopurine^b | Response to chemotherapeutic drugs: Cross-resistant (Ehrlich ascites (EAC-R2); listed as 6-MP): partially cross-resistant | Response to chemotherapeutic drugs: Cross-resistant (Ehrlich ascites (ETGR11)): 6-Mercaptopurine

Structure (SMILES): Nc1ccn([C@@H]2O[C@H](CO)[C@@H](O)[C@@H]2O)c(=O)n1 [Ara-C, 1-β-D-Arabinofuranosylcytosine]
activity against drug-resistant mouse leukemias [1]: active | Response to chemotherapeutic drugs: Cross-resistant (AKR/r-AzCdR; mouse, in vivo): cross-resistant; also recorded: Ara-C | Response to chemotherapeutic drugs: Same as parent line (P815/FU): retained the same sensitivity; also recorded: Ara-C | expression of es [2]: no significant increase | response of MGGH-resistant L1210 line to the drug [3]: collaterally sensitive | Response to chemotherapeutic drugs: Same as parent line (Sarcoma 180; in vivo): Ara-C | Response to chemotherapeutic drugs: Same as parent line (L1210/MP(III); mouse, in vivo): retained sensitivity; also recorded: Ara-C | animals that survived (>80 days) (Raji leukemia): none | mean survival time (Raji leukemia): 34.2 days | response of L1210/C95 to the drug (L1210/C95): sensitive | resistance of K562R to ara-C compared with K562S ([4]; 3H-dThd incorporation, MTT dye reduction and clonogenicity): approximately 15 fold | ara-CTP accumulated by K562S versus K562R ([4]; 4-h exposure, 10 microM): seven times more | more ara-C incorporated into DNA by K562S versus K562R ([4]; 4-h exposure, 10 microM): approximately 250% | Response to chemotherapeutic drugs: Cross-resistant (AKR/r-AzCR): cross-resistant; also recorded: Ara-C | mean survival time (Raji Burkitt's lymphoma): 13.2 days | cellular sensitivity in presence of nitrobenzylmercaptopurine riboside and dipyridamol [5]: reduced strongly

Structure (SMILES): Nc1ncn([C@@H]2O[C@H](CO)[C@@H](O)[C@H]2O)c(=O)n1 [AzCR, 5-azacytidine]
Response to chemotherapeutic drugs: Same as parent line (AKR/r-AzCdR; 5-Aza-2′-deoxycytidine-resistant AKR-r-AzCdr): sensitive; also recorded: AKR-r-AzCdr AzCR | index of potential carcinogenicity tg alpha [6]: 0.295

Structure (SMILES): CSc1ncnc2c1ncn2[C@@H]1O[C@H](CO)[C@@H](O)[C@H]1O [Compound 6-MeMPR, 6-methyl thio-purine ribonucleoside]
Response to chemotherapeutic drugs: Cross-resistant (Ehrlich ascites (EAC-R1)): partially cross-resistant and 6-MeMPR^b | Response to chemotherapeutic drugs: Same as parent line (L1210/MP(III); 6-Mercaptopurine-resistant L1210/MP(III)): retained sensitivity and 6-MeMPR | Response to chemotherapeutic drugs: Cross-resistant (Ehrlich ascites (ETGR1)): partially cross-resistant and 6-MeMPR^b

Structure (SMILES): [C-]#[N+][C@H]1[C@H](O)[C@@H](CO)O[C@H]1n1ccc(N)nc1=O [Compound 8, 2′-Deoxy-2′-isocyano-1-beta-D-arabinofuranosylcytosine]
tumor volume inhibition [7]: only moderate tumor volume inhibition | cytotoxicity [8]: moderately cytotoxic

Structure (SMILES): CCCCCCCC/C=C/CCCCCCCC(=O)OC[C@H]1O[C@@H](n2ccc(N)nc2=O)[C@@H](O)[C@@H]1O [Compound P-4055]
tumor response [9]: partial or complete tumor regression | animals that survived (>80 days) (Raji leukemia): 8 of 10 | long-time survivors (>70 days) (Raji Burkitt's lymphoma): three of five | cellular sensitivity in presence of nitrobenzylmercaptopurine riboside and dipyridamol [5]: not

Structure (SMILES): CC(=NNC(=N)N)c1ccc(NC(=O)Nc2ccc(C(C)=NNC(=N)N)cc2)cc1 [DDUG, 4′,4′-diacetyldipenylurea bis(guanylhydrazone)]
Response to chemotherapeutic drugs: Cross-resistant (L1210-ara-C): DDUG

Structure (SMILES): CN(C)/N=N/c1[nH]cnc1C(N)=O [DIC]
Response to chemotherapeutic drugs: Same as parent line (L1210/MP): DIC

VmaxKm for dCyd kinase, lower than that for dCyd (dCyd kinase): 8 fold
Structure (SMILES): C=C1[C@H](n2ccc(N)nc2=O)O[C@H](CO)[C@H]1O [DMDC, 2′-deoxy-2′-methylidenecytidine]
efficacy in tumors with higher levels of Cyd deaminase (human cancer xenograft): highly effective | efficacy in tumors with lower levels of Cyd deaminase (human cancer xenograft): only slight activity | suppression of the antiproliferative activity of DMDC by dCyd [10]: up to 150 fold | effect of tetrahydrouridine on antiproliferative activity [10]: reduced

IC50 (mouse leukemia L1210): 0.016 µM | IC50 [14]: 0.028 µM
Structure (SMILES): C#C[C@@]1(O)[C@@H](CO)O[C@@H](n2ccc(N)nc2=O)[C@@H]1O [ECyd, 1-(3-C-ethynyl-beta-D-ribo-pentofuranosyl)cytosine]
cytotoxicity (human tumors [11]; 24 and 72 h exposures): sufficiently potent cytotoxicity | cytotoxicity (human tumors [11]; 4 h exposure): fairly potent cytotoxicity | human tumors with potent inhibition [12]: 9 of 11 | 1050 values [13]: nanomolar to micromolar range | antitumor activity (human tumors [15]): strong antitumor activity without serious toxicity

Structure (SMILES): CC(C=NNC(=N)N)=NNC(=N)N [MGGH, methylglyoxal bis(guanylhydrazone)]
Response to chemotherapeutic drugs: Same as parent line (L1210/CA): MGGH | Response to chemotherapeutic drugs: Same as parent line (L1210-ara-C): MGGH

Structure (SMILES): COc1nc(N)nc2c1ncn2[C@@H]1O[C@H](CO)[C@@H](O)[C@@H]1O [Nelarabine]
dose toxicity in the clinical trials [16]: neurotoxicity

Structure (SMILES): Nc1nc(N)c2ccc(CNc3ccc(C(=O)N[C@@H](CC(=O)O)C(=O)O)cc3)cc2n1 [Quinaspar]
Response to chemotherapeutic drugs: collaterally sensitive (Sarcoma 180; 6-Mercaptopurine-resistant Sarcoma 180): Quinaspar

Structure (SMILES): Nc1nc2c(ncn2[C@@H]2O[C@H](CO)[C@@H](O)[C@@H]2O)c(=O)[nH]1 [araG, N-9-[β-D-Arabinofuranosyl]guanine]
degradation by purine nucleoside phosphorylase (PNP) [17]: relatively resistant | efficiency in T-lymphoblasts compared to B-lymphoblasts [18]: higher efficiency

top1-mediated DNA cleavage (topoisomerase I (top1)): enhanced
Structure (SMILES): Nc1ccn([C@@H]2O[C@H](CO)[C@@H](O)C2(F)F)c(=O)n1 [gemcitabine, 2′,2′difluoro-2′deoxycytidine]
resistance of P388/CPT45 top1-deficient cells to gemcitabine [19]: 5 fold | inhibitory effects in normal primary prostatic epithelial cells [20]: no inhibitory effects | efficacy in tumors with higher levels of Cyd deaminase (human cancer xenograft): only slightly active | influence on proliferative activity of TT cells [21]: concentration-dependent inhibitory influence | response rate with the drug alone (ovarian cancer; previously treated patients): around 13% | response rate for the drug alone (ovarian cancer; previously untreated patients with poor prognostic features): 24% | dFdC concentration of maximal inhibition of proliferation and colony formation (LNCaP, PC-3 and DU-145; LNCaP, PC-3, DU-145): 30 nM | gemcitabine concentration inhibiting colony formation by two thirds (LNCaP, PC-3 and DU-145; prostatic tumor cells): about 3.5 nM | cross resistance to gemcitabine ([22]; P388 resistant to 1-beta-D-arabinofuranosylcytosine): cross resistant | cross resistance to gemcitabine ([22]; P388 resistant to vincristine, cyclophosphamide, melphalan, cisplatin, methotrexate): not cross resistant | cross resistance to gemcitabine ([22]; multidrug-resistant P388 (resistant to doxorubicin or etoposide)): no cross resistance | overall response rate (advanced sarcomas; 1250 mg/m(2) i.v. weekly × three, q28 days): 3% | median time-to progression (advanced sarcomas; in vivo): 2.1 months | patients who discontinued treatment due to toxicity/refusal (advanced sarcomas; in vivo): 14% | hematologic toxicities > or = Grade 3, patients (advanced sarcomas; leukopenia and thrombocytopenia): 32% | effect of tetrahydrouridine on antiproliferative activity [10]: increased to some extent | gemcitabine concentration inhibiting colony formation by two thirds [23]: 9 nM
